The text below walks through data of patent publication US20240300886A1, “ARYLCYCLOHEXYLAMINE DERIVATIVES AND THEIR USE IN THE TREATMENT OF PSYCHIATRIC DISORDERS” (GILGAMESH PHARMACEUTICALS, INC., priority 2021, published 2024).

The half-life is the time in which the quantity being followed falls by half. Higher therefore signals slow decline. What is called microsomal CLint is a measure of how fast metabolising enzymes remove a compound, apart from limits set by blood flow. Read a high microsomal CLint as rapid turnover. By inhibition is commonly meant the change of the read-out against control, counted positive when it falls.

Data set [1] in a line: Metabolic stability in human liver microsomes (HLM). The format is in vitro ADME. To be noted: 0.50 mg protein/mL, NADPH; for Clint: 1 μM compound; for half-life at 1 μM: both sexes, human, pooled human liver microsomes, pH 7.4, 1 μM compound. Here is the method: (§1) HLM Stability. Pooled HLM from adult male and female donors (Corning 452117) were used. Microsomal incubations were carried out in multi-well plates. Liver microsomal incubation medium consisted of PBS (100 mM, pH 7.4), MgCl2 (1 mM), and NADPH (1 nmM), with 0.50 mg of liver microsomal protein per mL. Control incubations were performed by replacing the NADPH-cofactor system with PBS. Test compounds (1 μM, final solvent concentration 1.0%) were incubated with microsomes at 37° C. with constant shaking, Six time points over 60 minutes were analyzed, with 60 μL aliquots of the reaction mixture being drawn at each time point. The reaction aliquots were stopped by adding 180 μL of cold (4° C.) acetonitrile containing 200 ng/mL tolbutamide and 200 ng/mL labetalol as internal standards (IS), followed by shaking for 10 minutes, and then protein sedimentation by centrifugation at 4,000 rpm for 20 minutes at 4° C. Supernatant samples (80 μL) were diluted with water (240 μL) and analyzed for parent compound remaining using a fit-for-purpose liquid chromatography-tandem mass spectrometry (LC-MS/MS) method.
(§2) Data Analysis. The elimination constant (kel), half-life (t1/2) and intrinsic clearance (Clint) were determined in a plot of […] versus time, using linear regression analysis.

Data set [2] is described as follows: Metabolic stability in mouse liver microsomes (MLM). The conditions noted are these: male, CD-1, mouse, pooled mouse liver microsomes, pH 7.4, 1 μM compound, 0.50 mg protein/mL, NADPH. The format is in vitro ADME, CD-1 mice. Here is the method: as §1, with “MLM” for “HLM”, “from” for “from adult”, “CD-1 mice (XenoTech M1000)” for “and female donors (Corning 452117)”, “mM),” for “nmM),”, “shaking.” for “shaking,”
Data Analysis. The elimination constant (kel), half-life (t1/2) and intrinsic clearance (Clint) were determined in a plot of ln(AUC) versus […], using linear regression analysis.
For orientation: Microsomes from liver hold many membrane-bound enzymes, among them those of drug oxidation.

The nature of data set [3]: Metabolic stability in rat liver microsomes (RLM). Format: in vitro ADME, Sprague Dawley rats. The conditions noted are these: male, Sprague Dawley, rat, pooled rat liver microsomes, pH 7.4, 1 μM compound, 0.50 mg protein/mL, NADPH. Here is the method:
as §1, with “RLM” for “HLM”, “from” for “from adult”, “Sprague Dawley rats (XenoTech R1000)” for “and female donors (Corning 452117)”, “mM),” for “nmM),”, “shaking.” for “shaking,”
as §2

Data set [4] deals with serotonin transporter (SERT) (Homo sapiens (Human), UniProt P31645). In words: SERT fluorescent substrate uptake inhibition in transfected cells. Format: cell-based. The conditions noted are these: for inhibition at 10 µM: stably transfected cells expressing SERT; for ability to inhibit SERT uptake (in words): transfected cells, 10 μM. Here is the method:
The ability of disclosed compounds to inhibit uptake of monoamines by the serotonin transporter (SERT) was measured using a fluorescent substrate uptake assay in transfected cells (Table 15). […] Considering that inhibitors of SERT are well known to have antidepressant and anxiolytic effects and are among the most commonly prescribed drugs for mood disorders (e.g. fluoxetine, sertraline, etc.), blockade of SERT by certain compounds of the present disclosure is expected to synergize with their NMDAR inhibition to increase therapeutic activity for treating depression and related disorders. […] Further, the ability to tune the ratio between SERT and NMDAR is useful to obtain the optimal therapeutic profile depending on the intended clinical indication.
Uptake Inhibition. The ability of test compounds to block monoamine uptake by SERT was determined using the Neurotransmitter Transporter Uptake Assay Kit manufactured by Molecular Devices (Cat #R8173). Briefly, stably transfected cells expressing SERT were grown and plated into 384-well plates at a concentration of 20,000 cells per well. Plates were then incubated for 16-20 h at 37° C. and 5% CO2. The medium was then aspirated and replaced with 25 μL of assay buffer (20 mM HEPES in HBSS, containing 0.1% BSA) containing the test compounds at the appropriate concentrations. Plates were then centrifuged at 300 rpm for 15 s and then incubated at 37° C. for 30 minutes. At this time, 25 μL of the proprietary fluorescent dye solution was added, the plates were incubated at 37° C. for 60 minutes, and then fluorescence was quantified on a plate reader (excitation wavelength=440 nm, emission wavelength=520 nm). The proprietary dye solution contains a mixture of 1) a fluorescent dye that mimics the endogenous substrate of SERT and is thereby actively transported to the intracellular compartment in the absence of an inhibitor and 2) a masking dye that inhibits the fluorescence of dye 1 in the extracellular compartment. Therefore, the overall fluorescence of the system increases as the fluorescent dye is transported into the cells.

Some results are limits rather than exact numbers.

Take `CNC1(c2ccccc2Cl)CCCCC1=O` (racemic) [racemic ketamine, ketamine]: in data set [1], the Clint worked out at 25.5 μL/min/m and the half-life at 1 μM was 0.907 h. Further, in data set [2], the half-life at 1 μM came to 0.257 h and the microsomal CLint at 1 μM was 90.1 µL/min/mg. In data set [3], this molecule displayed a half-life at 1 μM of 0.0933 h and a microsomal CLint at 1 μM of 294 µL/min/mg.
As to `N[C@@]1(c2ccc(F)cc2)CCCCC1=O` [Compound 1R, (R)-2-amino-2-(4-fluorophenyl)cyclohexan-1-one], in data set [1], the Clint is reported as under 9.6 μL/min/m and the half-life at 1 μM is over 2.42 h. In data set [2], the half-life at 1 μM was over 2.42 h and the microsomal CLint at 1 μM was under 9.6 µL/min/mg. Further, the inhibition at 10 µM in data set [4] amounted to 10.4%. Further, in data set [3], the half-life at 1 μM is over 2.42 h and the microsomal CLint at 1 μM is under 9.6 µL/min/mg.
Consider `N[C@]1(c2ccc(F)cc2)CCCCC1=O` [Compound 1S, (S)-2-amino-2-(4-fluorophenyl)cyclohexan-1-one], for which, in data set [1], the Clint is on record as under 9.6 μL/min/m and the half-life at 1 μM is over 2.42 h. Besides, in data set [2], the half-life at 1 μM is over 2.42 h and the microsomal CLint at 1 μM was under 9.6 µL/min/mg. Moreover, in data set [4], the inhibition at 10 µM was determined as 14.9%. Besides, in data set [3], the half-life at 1 μM is over 2.42 h and the microsomal CLint at 1 μM was under 9.6 µL/min/mg.
Take `CN[C@@]1(c2ccc(F)cc2)CCCCC1=O` [Compound 2R, (R)-2-(4-fluorophenyl)-2(methylamino)cyclohexan-1-one]: in data set [1], the Clint is listed as under 9.6 μL/min/m and the half-life at 1 μM is over 2.42 h. In data set [2], this molecule registered a half-life at 1 μM of 2.12 h and a microsomal CLint at 1 μM of 10.9 µL/min/mg. Besides, in data set [4], the inhibition at 10 µM stood at 58.8% and the “ability to inhibit SERT uptake (in words)” value is “substantial inhibitor, activity in the micromolar range”. In data set [3], this molecule showed a half-life at 1 μM of 1.3 h and a microsomal CLint at 1 μM of 17.8 µL/min/mg.
As to `CN[C@]1(c2ccc(F)cc2)CCCCC1=O` [Compound 2S, (S)-2-(4-fluorophenyl)-2-(methylamino)cyclohexan-1-one], in data set [1], the Clint is listed as under 9.6 μL/min/m and the half-life at 1 μM was over 2.42 h. Also, in data set [2], the half-life at 1 μM stood at 1.79 h and the microsomal CLint at 1 μM is 12.9 µL/min/mg. Further, the inhibition at 10 µM in data set [4] turned out to be 36.4%. Besides, in data set [3], the half-life at 1 μM worked out at 1.01 h and the microsomal CLint at 1 μM turned out to be 22.8 µL/min/mg.
In data set [1], `N[C@]1(c2cccc(F)c2)CCCCC1=O` [Compound 3S] yielded a Clint of under 9.6 μL/min/m and a half-life at 1 μM of over 2.42 h. Further, in data set [2], the half-life at 1 μM is 2.05 h and the microsomal CLint at 1 μM was 11.3 µL/min/mg. In addition, in data set [4], the inhibition at 10 µM is -0.21% and the “ability to inhibit SERT uptake (in words)” value was “inactive”. In data set [3], this molecule gave a half-life at 1 μM of 1.58 h and a microsomal CLint at 1 μM of 14.6 µL/min/mg.
